Columns and labels:
Type in all cases: cell-based, human
[1] = tested on: α,β-tubulin; assay: In vitro quantification of polymeric vs. soluble tubulin fractions in EA.hy926 cells; conditions: for soluble vs. polymerized tubulin ratio: EA.hy926, 1 µM, 6 h, DMSO control 2.33 ± 0.14
Method: To assess the early effects on the microtubule cytoskeleton in vitro, EA.hy926 cells were cultured for 24 h in 6-cm dishes (3 × 10^5 cells). They were exposed to […] (control), 1 μM CA-4, paclitaxel, or increasing concentrations of 26Z (50, 100, 250, 2500, 10,000 nM) for 6 h. Cells were washed with PBS and lysed directly in the dishes with hypotonic lysis buffer (20 mM Tris-HCl, 1 mM MgCl2, 2 mM EGTA, 0.5% Triton X-100, glycerol 10%, pH 6.8), supplemented with protease inhibitors (2 μg/mL leupeptin, 2 μg/mL pepstatin, 0.4 mM Na vanadate, 0.5 mM PMSF, 1 mM DTT), for 3 min at 30 °C. The soluble fraction was immediately collected, mixed with 5× sample buffer, and boiled at 95 °C for 5 min. The polymerized fraction was collected directly from the culture dish following 10 min of incubation at room temperature with 1× sample buffer.
For the concentration-dependent assay, the cells were harvested by scraping and centrifuged at 1000 g for 5 min, and then lysed with the hypotonic cell lysis buffer for 10 min at room temperature. Tubulin fractions were obtained by centrifugation at 12,000 × g for 10 min.
Equal volumes of the samples were subjected to 10% SDS-PAGE followed by western blotting. Detection of β-tubulin content was accomplished with an anti-β-tubulin mouse monoclonal antibody (sc-101527, Santa Cruz Biotechnology).

[2] = tested on: EA.hy926 cells; assay: Clonogenic survival assay; conditions: 72 h treatment + 6 days recovery
Method: EA.hy926 cells were seeded at 300 cells/well on a 6-well plate and incubated for 24 h. The cells were treated with different concentrations of test compounds for 72 h. After six additional days of growth in a fresh medium to form visible colonies, cells were washed with phosphate-buffered saline (PBS, pH 7.4) and stained with crystal violet (0.5%, w/v) in 6% glutaraldehyde. After 30 min of incubation, the plates were washed with tap water, dried, photographed, and analyzed using ImageJ [79]. Raw data were normalized to the corresponding DMSO control for each independent experiment. After normalization, statistically significant differences for colony-forming efficiency (CFE) values versus […] were calculated.

[3] = tested on: caspase 3, 8 and 9; assay: Western blot analysis of caspase activation; conditions: EA.hy926, 24 h
Method: A total of 7 × 10^5 cells was seeded in 100-mm dishes. On the next day, cells were treated with the corresponding concentrations of CA-4 and 26Z. After 24 h, treated cells were collected and lysed with lysis buffer (50 mM HEPES, pH 7.7, 250 mM KCl, 10% glycerol, 0.1% Nonidet P-40) containing protease inhibitors (0.4 mM sodium vanadate, 0.5 mM PMSF, 1 mM DTT, […]) by incubation on ice for 30 min and overnight at −20 °C [80]. The concentration of obtained total cell protein lysates was determined by the method of Bradford. Samples were separated on 12% polyacrylamide gels and transferred to nitrocellulose or PVDF membranes. Immunoblotting was performed by blocking in 3.5% non-fat dried milk in PBS, with subsequent incubation for 1 h with primary antibodies for caspase 3 (sc-56053, Santa Cruz Biotechnology), caspase 8 (sc-81656, Santa Cruz Biotechnology), caspase 9 (sc-8355, Santa Cruz Biotechnology), and PARP-1 (sc-8007, Santa Cruz Biotechnology), diluted in PBS containing 0.05% Tween-20. This was followed by incubation with a peroxidase-conjugated secondary antibody m-Igk BP-HRP (sc-516102, Santa Cruz Biotechnology) or a donkey anti-rabbit IgG-HRP (sc-2313, Santa Cruz Biotechnology) for 1 h, and detection of the chemiluminescent signal was accomplished with ECL Select^TM Western Blotting Detection Reagent (Amersham) on X-ray film. β–actin was used as a loading control and mouse monoclonal antibody was used following the manufacturer’s instruction (sc-47778, Santa Cruz Biotechnology).

[4] = tested on: MCF-7 cells; assay: MTT cytotoxicity assay, MCF-7
Method: All tested compounds were dissolved in DMSO at 25 mM initial concentration and diluted with medium to obtain the working concentrations (0.01 nM–250 µM). Serial drug dilutions were prepared in medium immediately before each experiment. The DMSO working concentration in the medium was […]. For the MTT assay, cells were seeded into 96-well microtitre plates at a density of 1 × 10^4 in 100 µL complete medium per well. They were further incubated for 24 h, followed by treatment with CA-4 analogs up to 72 h. Cell viability was determined using the MTT assay. Ten µL of MTT solution (5 mg/mL) was added to each well and further incubated for 3 h at 37 °C. To dissolve the formazan product, 100 µL/well of 99.5% isopropanol was added. Cell viability was determined by measuring absorbance at 550/630 nm using a DTX880 plate reader (Beckman Coulter, USA). Results, expressed as concentrations that inhibit 20% (IC20), 50% (IC50), and 80% (IC80) of cell growth, were calculated using GraphPad Prism 8.0.1.
Table S 3.1. Description of eukaryotic cell lines used for MTT assay. […]
Kindly provided 3.1 g/L Glucose,
mammary by Prof. Iana DMEM/F12 with
Breast MDA- gland/breast; derived Tsoneva 10% FBS, 100 U/mL
MB-231 h from metastatic site: (IBPhBME – penicillin, 100 U/mL
pleural effusion; BAS) streptomycin (Lonza). […]

[5] = tested on: colchicine binding site of β-tubulin; assay: Colchicine-binding site assay (EBI competition) in EA.hy926 cells; conditions: then 100 µM EBI 2 h, Western blot
Method: N,N′-ethylene-bis(iodoacetamide) (abcam, ab144980) was dissolved in DMSO to a final concentration of 50 mM. EA.hy926 cells were seeded at density of 1 × 10^5 cells/mL and incubated overnight. […] Cells were lysed with Laemmli buffer and subjected to Western blot analysis for β-tubulin [66, 67]. The detailed Western blot method is as shown above.

[6] = tested on: EA.hy926 cells; assay: In vitro cell migration (wound-healing) assay; conditions: 24 h
Method: A total of 3 × 10^5 EA.hy926 cells were seeded in a 12-well plate and grown close to the confluence. The cell monolayer was gently scraped with a P200 pipette tip, creating a wound area around 1-mm wide. Cells were washed twice with fresh medium and treated with test compounds diluted in growth media to the corresponding sub-toxic concentrations. Images were acquired at 0 and 24 h following treatment. After incubation for 24 h, the scratch wound width was measured and recorded, and then compared with the initial scratch wound width at 0 h. Using the ImageJ image processing program (ImageJ150-WIN-Java8), the size of the denuded area in pixels was determined at each time point from the digital images.

SMILES	soluble vs. polymerized tubulin ratio [1]	concentration above which the depolymerizing effect is clearly visible ([1]; EA.hy926, 6 h, 0.01–10 μM)	decrease in colony number ([2]; EA.hy926, 250 nM)	reduction in colony formation ([2]; EA.hy926, 2.5, 10 and 25 µM)	activation of caspases 8 and 9 [3]	active forms of effector caspase 3 ([3]; 26Z at IC50 and IC80)	active forms of effector caspase 3 ([3]; CA-4 IC50 and 26Z IC20)	IC50 ([4]; Homo sapiens, MCF7, 72 h)	tubulin EBI-adduct formation ([5]; EA.hy926, 25 µM compound 2 h)	remaining mean wound opened area ([6]; EA.hy926, 50 nM)	inhibition at 0.001 µM ([2]; Homo sapiens, EA.hy 926, EA.hy926, 1 nM, read-out: inhibition of endothelial cell colony formation)	Cytostatic activity (% viable cells) ([4]; MCF-7 cells, 72 h, MTT, in the concentration range studied)	tubulin EBI-adduct formation ([5]; EA.hy926, 10 μM compound 2 h)	remaining mean wound opened area ([6]; EA.hy926, 1 nM)
COc1cc(/C=C\c2ccc3c(c2)sc(=O)n3C)cc(OC)c1OC [Compound 26Z, (Z)-3-methyl-6-(3,4,5-trimethoxystyryl)-2(3H)-benzothiazolone]	2.74 ± 0.43	higher than 0.05 μM	90%	about 100%	activated	detected	to a lesser extent	2420 ± 480 nM	inhibited	49%				
COc1ccc(/C=C\c2cc(OC)c(OC)c(OC)c2)cc1O [CA-4, Combretastatin A-4]	3.3 ± 0.61						to a lesser extent				80%	40%	inhibited	24.4%

— article PMC8703450, “New Heterocyclic Combretastatin A-4 Analogs: Synthesis and Biological Activity of Styryl-2(3H)-benzothiazolones” (Pharmaceuticals, 2021)
